Laboratory results reported in patent publication US20220119354A1, “DIAMINO-SUBSTITUTED PYRIDINES AND PYRIMIDINES AS HERBICIDES” (FMC Corporation, priority 2019, published 2022).

Legend:
Format in all cases: in vivo
[1] = system: sedge, umbrella (small-flower umbrella sedge, Cyperus difformis); assay: Test B flooded paddy test, umbrella sedge; settings: Flood, 250 g ai/ha, applied to paddy water, 2-leaf stage, visual evaluation after 13 to 15 d
Procedure, shortened: (§1)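 Visual injury scores run from 0 (no effect) to 100 (complete control), assigned by comparison with controls 13 to 15 d after treatment. Treatment went into floodwater standing 3 cm over the soil of pots holding 2-leaf plants.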

[2] = system: foxtail, giant (Setaria faberii); assay: Test A preemergence, giant foxtail; settings: 0 to 100 scale; for Foxtail, Giant plant response rating: 0 is no effect, 100 is complete control
Procedure, shortened: (§2)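 Greenhouse evaluation: treated and untreated pots were held about 10 d, then injury was rated visually from 0 (no effect) to 100 (complete control). Application was preemergence to soil or postemergence to seedlings 2–10 cm tall, using a non-phytotoxic solvent formulation with surfactant.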

[3] = system: ryegrass, Italian (Lolium multiflorum); assay: Test A preemergence, Italian ryegrass; settings: 0 to 100 scale; for Ryegrass, Italian plant response rating: 0 is no effect, 100 is complete control
Procedure, shortened: as §2

[4] = system: ducksalad (Heteranthera limosa); assay: Test B flooded paddy test, ducksalad; settings: Flood, 250 g ai/ha, applied to paddy water, 2-leaf stage, visual evaluation after 13 to 15 d
Procedure, shortened: as §1

kochia (Kochia scoparia) [5] = assay: Test A preemergence, kochia; settings: 0 to 100 scale; for Kochia plant response rating: 0 is no effect, 100 is complete control
Procedure, shortened: as §2

rice (Oryza sativa) = assay: Test B flooded paddy test, rice; settings: Flood, 250 g ai/ha, applied to paddy water, 2-leaf stage, visual evaluation after 13 to 15 d
Procedure, shortened: as §1

[6] = system: pigweed (Amaranthus retroflexus); assay: Test A postemergence, pigweed; settings: 0 to 100 scale
Procedure, shortened: as §2

[7] = system: wheat (Triticum aestivum); assay: Test A postemergence, wheat; settings: 0 to 100 scale
Procedure, shortened: as §2

[8] = system: ragweed (common ragweed, Ambrosia elatior); assay: Test A preemergence, ragweed; settings: 0 to 100 scale; for Ragweed plant response rating: 0 is no effect, 100 is complete control
Procedure, shortened: as §2

corn (Zea mays) = assay: Test A postemergence, corn; settings: 0 to 100 scale
Procedure, shortened: as §2

[9] = system: ragweed (common ragweed, Ambrosia elatior); assay: Test A postemergence, ragweed; settings: 0 to 100 scale
Procedure, shortened: as §2

[10] = system: foxtail, giant (Setaria faberii); assay: Test A postemergence, giant foxtail; settings: 0 to 100 scale
Procedure, shortened: as §2

[11] = system: ryegrass, Italian (Lolium multiflorum); assay: Test A postemergence, Italian ryegrass; settings: 0 to 100 scale
Procedure, shortened: as §2

[12] = system: barnyardgrass (Echinochloa crus-galli); assay: Test A preemergence, barnyardgrass; settings: 0 to 100 scale; for Barnyardgrass plant response rating: 0 is no effect, 100 is complete control
Procedure, shortened: as §2

[13] = system: pigweed (Amaranthus retroflexus); assay: Test A preemergence, pigweed; settings: 0 to 100 scale; for Pigweed plant response rating: 0 is no effect, 100 is complete control
Procedure, shortened: as §2

[14] = system: galium (catchweed bedstraw, Galium aparine); assay: Test A postemergence, galium; settings: 0 to 100 scale
Procedure, shortened: as §2

[15] = system: barnyardgrass (Echinochloa crus-galli); assay: Test B flooded paddy test, barnyardgrass; settings: Flood, 250 g ai/ha, applied to paddy water, 2-leaf stage, visual evaluation after 13 to 15 d
Procedure, shortened: as §1

kochia (Kochia scoparia) [16] = assay: Test A postemergence, kochia; settings: 0 to 100 scale
Procedure, shortened: as §2

[17] = system: barnyardgrass (Echinochloa crus-galli); assay: Test A postemergence, barnyardgrass; settings: 0 to 100 scale
Procedure, shortened: as §2

[18] = system: blackgrass (Alopecurus myosuroides); assay: Test A postemergence, blackgrass; settings: 0 to 100 scale
Procedure, shortened: as §2

[19] = 125 g ai/ha, 0 no effect, 100 complete control
[20] = 500 g ai/ha, 0 is no effect, 100 is complete control

**Q.** For `C[C@@H](Nc1ncc(C(F)(F)F)c(N)n1)c1cc2ccc(F)cc2s1` [Compound 46], which “Plant response rating, Sedge, Umbrella (0 to 100 scale, 0 is no effect, 100 is complete control)” value [1] is on record?
**A.** 95

**Q.** What about the “Foxtail, Giant plant response rating” value ([2]; 125 g ai/ha) of the same compound?
**A.** 70

**Q.** What about the “Foxtail, Giant plant response rating” value ([2]; 500 g ai/ha) of the same compound?
**A.** 100

**Q.** What about the “Ryegrass, Italian plant response rating” value ([3]; 125 g ai/ha) of the same compound?
**A.** 20

**Q.** What about the “Ryegrass, Italian plant response rating” value ([3]; 500 g ai/ha) of the same compound?
**A.** 80

**Q.** What about the “Plant response rating, Ducksalad (0 to 100 scale, 0 is no effect, 100 is complete control)” value [4] of the same compound?
**A.** 30

**Q.** And the “Kochia plant response rating” value (kochia (Kochia scoparia) [5]; 125 g ai/ha)?
**A.** 90

**Q.** And the “Kochia plant response rating” value (kochia (Kochia scoparia) [5]; 500 g ai/ha)?
**A.** 100

**Q.** And the “Plant response rating, Rice (0 to 100 scale, 0 is no effect, 100 is complete control)” value (rice (Oryza sativa))?
**A.** 10

**Q.** What about the “Plant response rating, Pigweed” value [6, 19] of the same compound?
**A.** 100

**Q.** What about the “Pigweed plant response rating” value [6, 20] of the same compound?
**A.** 100

**Q.** What about the “Plant response rating, Wheat” value [7, 19] of the same compound?
**A.** 0

**Q.** What about the “Wheat plant response rating” value [7, 20] of the same compound?
**A.** 0

**Q.** And the “Ragweed plant response rating” value ([8]; 125 g ai/ha)?
**A.** 80

**Q.** What about the “Ragweed plant response rating” value ([8]; 500 g ai/ha) of the same compound?
**A.** 100

**Q.** What about the “Plant response rating, Corn” value (corn (Zea mays); [19]) of the same compound?
**A.** 0

**Q.** What about the “Corn plant response rating” value (corn (Zea mays); [20]) of the same compound?
**A.** 60

**Q.** What about the “Plant response rating, Ragweed” value [9, 19] of the same compound?
**A.** 50

**Q.** And the “Ragweed plant response rating” value [9, 20]?
**A.** 80

**Q.** And the “Plant response rating, Foxtail, Giant” value [10, 19]?
**A.** 10

**Q.** And the “Foxtail, Giant plant response rating” value [10, 20]?
**A.** 60

**Q.** And the “Plant response rating, Ryegrass, Italian” value [11, 19]?
**A.** 0

**Q.** And the “Ryegrass, Italian plant response rating” value [11, 20]?
**A.** 40

**Q.** And the “Barnyardgrass plant response rating” value ([12]; 125 g ai/ha)?
**A.** 20

**Q.** What about the “Barnyardgrass plant response rating” value ([12]; 500 g ai/ha) of the same compound?
**A.** 90

**Q.** What about the “Pigweed plant response rating” value ([13]; 125 g ai/ha) of the same compound?
**A.** 100

**Q.** What about the “Pigweed plant response rating” value ([13]; 500 g ai/ha) of the same compound?
**A.** 100

**Q.** And the “Plant response rating, Galium” value [14, 19]?
**A.** 60

**Q.** What about the “Galium plant response rating” value [14, 20] of the same compound?
**A.** 90

**Q.** And the “Plant response rating, Barnyardgrass (0 to 100 scale, 0 is no effect, 100 is complete control)” value [15]?
**A.** 40

**Q.** What about the “Plant response rating, Kochia” value (kochia (Kochia scoparia) [16]; [19]) of the same compound?
**A.** 90

**Q.** And the “Kochia plant response rating” value (kochia (Kochia scoparia) [16]; [20])?
**A.** 90

**Q.** And the “Plant response rating, Barnyardgrass” value [17, 19]?
**A.** 20

**Q.** What about the “Barnyardgrass plant response rating” value [17, 20] of the same compound?
**A.** 60

**Q.** And the “Plant response rating, Blackgrass” value [18, 19]?
**A.** 20

**Q.** And the “Blackgrass plant response rating” value [18, 20]?
**A.** 30

**Q.** How did the “Plant response rating, Sedge, Umbrella (0 to 100 scale, 0 is no effect, 100 is complete control)” value [1] turn out when `CCc1ccc2oc([C@@H](C)Nc3ncc(C(F)(F)F)c(N)n3)cc2c1` [Compound 17] was run?
**A.** 0

**Q.** What about the “Plant response rating, Foxtail, Giant” value ([2]; 125 g ai/ha) of the same compound?
**A.** 0

**Q.** What about the “Plant response rating, Foxtail, Giant” value ([2]; 500 g ai/ha) of the same compound?
**A.** 20

**Q.** What about the “Plant response rating, Ryegrass, Italian” value ([3]; 125 g ai/ha) of the same compound?
**A.** 0

**Q.** What about the “Plant response rating, Ryegrass, Italian” value ([3]; 500 g ai/ha) of the same compound?
**A.** 20

**Q.** What about the “Plant response rating, Ducksalad (0 to 100 scale, 0 is no effect, 100 is complete control)” value [4] of the same compound?
**A.** 0

**Q.** What about the “Plant response rating, Kochia” value (kochia (Kochia scoparia) [5]; 125 g ai/ha) of the same compound?
**A.** 0

**Q.** And the “Plant response rating, Kochia” value (kochia (Kochia scoparia) [5]; 500 g ai/ha)?
**A.** 0

**Q.** What about the “Plant response rating, Rice (0 to 100 scale, 0 is no effect, 100 is complete control)” value (rice (Oryza sativa)) of the same compound?
**A.** 0

**Q.** And the “Plant response rating, Pigweed” value ([6]; 125 g ai/ha)?
**A.** 0

**Q.** What about the “Plant response rating, Pigweed” value ([6]; 500 g ai/ha) of the same compound?
**A.** 20

**Q.** And the “Plant response rating, Wheat” value ([7]; 125 g ai/ha)?
**A.** 0

**Q.** And the “Plant response rating, Wheat” value ([7]; 500 g ai/ha)?
**A.** 0

**Q.** And the “Plant response rating, Ragweed” value ([8]; 125 g ai/ha)?
**A.** 0

**Q.** What about the “Plant response rating, Ragweed” value ([8]; 500 g ai/ha) of the same compound?
**A.** 50

**Q.** What about the “Plant response rating, Corn” value (corn (Zea mays); 125 g ai/ha) of the same compound?
**A.** 0

**Q.** What about the “Plant response rating, Corn” value (corn (Zea mays); 500 g ai/ha) of the same compound?
**A.** 0

**Q.** What about the “Plant response rating, Ragweed” value ([9]; 125 g ai/ha) of the same compound?
**A.** 0

**Q.** What about the “Plant response rating, Ragweed” value ([9]; 500 g ai/ha) of the same compound?
**A.** 20

**Q.** And the “Plant response rating, Foxtail, Giant” value ([10]; 125 g ai/ha)?
**A.** 20

**Q.** What about the “Plant response rating, Foxtail, Giant” value ([10]; 500 g ai/ha) of the same compound?
**A.** 20

**Q.** What about the “Plant response rating, Ryegrass, Italian” value ([11]; 125 g ai/ha) of the same compound?
**A.** 0

**Q.** And the “Plant response rating, Ryegrass, Italian” value ([11]; 500 g ai/ha)?
**A.** 0

**Q.** And the “Plant response rating, Barnyardgrass” value ([12]; 125 g ai/ha)?
**A.** 0

**Q.** And the “Plant response rating, Barnyardgrass” value ([12]; 500 g ai/ha)?
**A.** 0

**Q.** What about the “Plant response rating, Pigweed” value ([13]; 125 g ai/ha) of the same compound?
**A.** 0

**Q.** What about the “Plant response rating, Pigweed” value ([13]; 500 g ai/ha) of the same compound?
**A.** 0

**Q.** What about the “Plant response rating, Galium” value ([14]; 125 g ai/ha) of the same compound?
**A.** 0

**Q.** What about the “Plant response rating, Galium” value ([14]; 500 g ai/ha) of the same compound?
**A.** 0

**Q.** And the “Plant response rating, Barnyardgrass (0 to 100 scale, 0 is no effect, 100 is complete control)” value [15]?
**A.** 0

**Q.** What about the “Plant response rating, Kochia” value (kochia (Kochia scoparia) [16]; 125 g ai/ha) of the same compound?
**A.** 0

**Q.** And the “Plant response rating, Kochia” value (kochia (Kochia scoparia) [16]; 500 g ai/ha)?
**A.** 0

**Q.** What about the “Plant response rating, Barnyardgrass” value ([17]; 125 g ai/ha) of the same compound?
**A.** 0

**Q.** What about the “Plant response rating, Barnyardgrass” value ([17]; 500 g ai/ha) of the same compound?
**A.** 0

**Q.** What about the “Plant response rating, Blackgrass” value ([18]; 125 g ai/ha) of the same compound?
**A.** 0

**Q.** And the “Plant response rating, Blackgrass” value ([18]; 500 g ai/ha)?
**A.** 0
